How the values were obtained:
Tar16 = assay: Coupled Tar13/Tar16 assay (Tar16 substrate generated in situ by Tar13); type: biochemical, Saccharomonospora sp. CNQ-490; conditions: for Enzyme assays, % conversion, Tar16: substrates generated in situ by Tar13, Tar16 10 μM, overnight at 30° C.
Experimental: Coupled Tar13 Tar]6. The reaction mixture of total volume 100 μL in 1.5 mL Eppendorf tube was composed of the following components:
Buffer: up to 50 μL (50 mM Tris, 500 mM NaCl 10% glycerol, pH 8.0
Substrate (for Tar13 enzyme): 0.25 μM
(§1) In a separate Eppendorf tube premix:
Buffer: up to […] (50 mM Tris, 500 mM NaCl 10% glycerol, pH 8.0)
Add substrate solution to the enzyme mixture to start reaction.
No difference in conversion was observed when Tar16 was added into the assay mixture either together with Tar13, or after 2 h of incubation at 30° C., or after overnight incubation at 30° C., followed by another 4 h of incubation after addition of Tar16. Therefore, for convenience, all components were mixed at the same time point, the reactions were incubated at 30° C. overnight, after which the assays were quenched by addition of equal volume of HPLC grade methanol.

[1] = tested on: S. coelicolor M1146-tarM1Δtar14; assay: Feeding/chemical complementation experiment, incorporation into taromycin; type: cell-based, Streptomyces coelicolor; conditions: for Feeding, % incorporation, A1 domain: incorporation only at residue-1; for Feeding, % incorporation, A1 domain / Feeding, % incorporation, A1 + A13 domain: analogue fed at 2 mM, judged by comparison to taromycin yields by S. coelicolor M1146-tarM1; for Feeding, % incorporation, A1 + A13 domain: incorporation at residue-1 and residue-13
Experimental: For taromycin production, seed culture in TSBY medium was inoculated with corresponding S. coelicolor spore suspension (collected from fresh SFM plates) and was cultured for 36-48 h till a dense creamy consistency was reached. Kanamycin at 10 μg mL^−1 final concentration was added to the seed cultures of S. coelicolor M1146-pCAP01-tarM1 and S. coelicolor M1146-pCAP01-tarM1Δtar14. Inocula of seed culture (5%, v/v) were used for fermentation in MP medium (1% glucose, 1% soluble starch, 0.4% peptone, 0.3% yeast extract, 0.3% soytone, 0.2% meat extract, 0.2% CaCO3, and 0.5% NaCl, pH 7.2). Fermentation was carried out at 30° C. and 220 rpm in a rotary incubator for 6 days. A maximum of 40 mL of production medium was added into 250 mL flask with metal springs.
S. coelicolor M1146-pCAP01-tarM1Δtar14 cultures were grown as described in Section 3 for taromycin production. After 18 and 36 h of cultivation, tryptophan analogues in the form of water suspension were added to the production cultures to a final concentration 2 mM. The cultures were further incubated for 5 days before extraction and further analysis by LC-HRMS^n. All experiments were repeated independently twice with three replicates for each compound. In parallel, cultures of S. coelicolor M1146-pCAP01-tarM1 and S. coelicolor M1146-pCAP01-tarM1Δtar14 were grown as controls.
To analyze production of taromycins and analogues, solid phase extraction of the culture supernatants was performed with Amberlite XAD-16 resin (SIGMA). For analytical purposes around 1 g of washed and equilibrated resin was added to 20 mL of supernatant followed by shaking for 30-60 min. Samples were then spun down and decanted. The resin was washed twice with water (15 mL), before elution with methanol (5 mL). The methanol extracts from the resin were used for LCMS analysis without additional concentration step.

Tar13 = Tar13 in vitro assay with substrate analogues; type: biochemical, Saccharomonospora sp. CNQ-490; conditions: for Enzyme assays, % conversion, Tar13: substrate 0.25 mM, Tar13 20 μM, overnight at 30° C.
Experimental: Tar13. Upon testing different reaction compositions (buffers, concentration of ascorbic acids and hemin, pH), the following conditions were found as optimal:
Buffer: up to 50 μL (50 mM Tris, 500 mM NaCl 10% glycerol, pH 8.0)
as §1
Add substrate solution to the enzyme mixture to start reaction
When Tar13 was directly added to the enzyme reaction, immediate protein precipitation occurred. The same was observed if the enzyme was not pre-mixed with hemin and ascorbic acid. Full substrate conversion was achieved after overnight incubation at 30° C. in 1.5 mL Eppendorf tube with shaking. The reactions were quenched by addition of equal volume of HPLC grade methanol.

Tar14 = Tar14 in vitro halogenation assay with substrate analogues; type: biochemical, Saccharomonospora sp. CNQ-490; conditions: substrate 0.25 mM, Tar14 5 μM, 30° C., 4 h; for Enzyme assays, % conversion, Tar14, Cl^−: NaCl 100 mM; for Enzyme assays, % conversion, Tar14, Br^−: KBr 100 mM
Experimental: Tar14. Tar14 reaction mixture of total volume 100 μL in 1.5 mL Eppendorf tube was composed of the following components:
Buffer (10 mM Tris, 10% glycerol, pH 7.6): up to 100 μL

Compound	Enzyme assays, % conversion, Tar16 (Tar16)	Feeding, % incorporation, A1 domain [1]	Enzyme assays, % conversion, Tar13 (Tar13)	Enzyme assays, % conversion, Tar14, Cl^− (Tar14)	Feeding, % incorporation, A1 + A13 domain [1]	Enzyme assays, % conversion, Tar14, Br^− (Tar14)	Conversion in coupled Tar13/Tar16 reaction (Tar16; Tar16 added to Tar13 reaction)	Chemical complementation of taromycin production ([1]; S. coelicolor M1146-tarM1Δtar14 mutant fed with compound)	Conversion/activity as substrate for Tar13 (Tar13)
N[C@@H](Cc1c[nH]c2ccc(Br)cc12)C(=O)O [Compound 8, L-5-Bromotryptophan]	100%	50%	<1%	<1%					
NC(Cc1c[nH]c2ccc([N+](=O)[O-])cc12)C(=O)O [Compound 21, D/L-5-NO2-Trp]		60%							
N[C@@H](Cc1c[nH]c2cccc(F)c12)C(=O)O [Compound 15, D/L-4-fluorotryptophan]		15%		10%	15%	15%			
N[C@@H](Cc1c[nH]c2cccc(Br)c12)C(=O)O [Compound 12, L-4-bromotryptophan]				<1%		<5%			
L-7-Br-Trp [Compound 13]		<5%		100%		100%			
N[C@@H](Cc1c[nH]c2ccc(Cl)cc12)C(=O)O [Compound 14, D/L-5-chlorotryptophan]	100%	30%	<1%	<1%		<1%			
Cc1ccc2[nH]cc(C[C@H](N)C(=O)O)c2c1 [Compound 18, D/L-5-methyltryptophan]	70%	35%	<1%	50%		25%			
N[C@H](Cc1c[nH]c2ccccc12)C(=O)O [Compound 11, D-tryptophan]	40%		<1%	15%		20%			
Nc1ccccc1C(=O)C[C@H](N)C(=O)O [Compound 5, L-kynurenine]				30%		30%			
Nc1cc(Cl)ccc1C(=O)CC(N)C(=O)O [Compound 1, L-4-chlorokynurenine]				<1%		5%			
L-5-CH3O-Trp [Compound 19]	100%	15%	<1%	<1%		<5%			
L-5-OH-Trp [Compound 20]		10%		5%		<1%			
N[C@@H](Cc1c[nH]c2cc(Cl)ccc12)C(=O)O [Compound 7, L-6-Chlorotryptophan]	100%		100%		100%	<5%	full conversion	restored taromycin production	complete conversion
N[C@@H](Cc1c[nH]c2cc(F)ccc12)C(=O)O [Compound 16, D/L-6-fluorotryptophan]	100%	<5%	5%	25%	90%	25%			
N[C@@H](Cc1c[nH]c2cc(Br)ccc12)C(=O)O [Compound 9, L-6-bromotryptophan]	100%		100%		20%	<1%			
Cc1cccc2[nH]cc(C[C@H](N)C(=O)O)c12 [Compound 17, D/L-4-methyltryptophan]		40%		100%		75%			

Source: patent publication US20220290196A1, “GENETICALLY ENGINEERED MICROBES AND BIOSYNTHETIC METHODS” (The Regents of the University of California, priority 2019, published 2022)
